Consider ten compounds from patent EP4559922A1, “ANTIHISTAMINE COMPOUND, PREPARATION METHOD THEREFOR AND USE THEREOF” (HC Synthetic Pharmaceutical Co., Ltd., priority 2022, dated 2024).

The structures appear in SMILES notation.

Data set [1] relates to isolated ileal smooth muscle of guinea pigs. The data set is described as follows: Effect on muscle tone of isolated ileal smooth muscle of guinea pigs (no histamine added). The following applies: X±s; for Smooth muscle tone After administration: 5 minutes after adding drug; for Antispasmodic percentage: relative to tone before adding compound, n = 8, 5 min. As for the experimental part:
(§1) The guinea pig was knocked unconscious with a wooden stick, and the abdomen was immediately dissected to separate the ileum about 15 cm in length. The contents of the intestinal segment were flushed with Tyrode's solution and placed in Tyrode's solution at a constant temperature of 37°C for later use, and oxygen was supplied simultaneously. The experimental intestinal tract (1 cm in length) was cut and placed into 20 ml of Tyrode's solution at a constant temperature of 37°C with a continuous oxygen supply. One end of the intestine was fixed on the ventilation hook and the other end was connected to the muscle tone transducer and led to the computer interface. The muscle tone value of the ileal smooth muscle was recorded with a BL system. The experiment was carried out after the intestinal segment contraction became stable.
After the ileum contraction curve stabilized, the tone values before adding the drug were recorded, then the drug or DMSO was added, and the average tone value of the ileum contraction curve at that point was recorded 5 minutes later. The operation was repeated 8 times. The antispasmodic percentage was calculated according to the following formula. Antispasmodic percentage =; (Tone value before adding subject compound−Tone value after adding subject compound)/(Tone value before adding subject compound); × 100% [formula]

Data set [2] is described as follows: Antagonism of histamine-induced contraction of isolated ileal smooth muscle of guinea pigs. Particulars: relative to tone after adding histamine; x±s, n = 8; 3 min. As for the experimental part: as §1
(§2) After the ileal peristalsis curve stabilized, the tone values before adding the compound were recorded, and then 0.05 mL of histamine was added. […] The operation was repeated 8 times. The antispasmodic percentage was calculated using the following equation. Antispasmodic percentage =; (Tone value after adding histamine−Tone value after adding subject compound)/(Tone value after adding histamine) × 100% [formula]

The next data set concerns histamine. The description is as above. The following applies: x±s, n = 8; for Smooth muscle tone After administration: 3 minutes after adding 0.05 mL compound following histamine. How it is done:
as §1, §2

Data set [3] relates to histamine-induced asthma in guinea pigs. The data set can be described thus: Antiasthmatic effect on histamine-induced asthma in guinea pigs (latency period). Particulars: X±s, n = 5; for Post-administration latency period: 1 mg/kg oral gavage, sixty minutes after administration, histamine hydrochloride spray, capped at 8 minutes. The class given is in vivo. How it is done:
The guinea pigs were placed in a polymethyl methacrylate bell jar and a histamine hydrochloride solution was sprayed ultrasonically (0.8 mg/mL) for 40 seconds. The time point at which the guinea pigs developed asthma was recorded. The time of convulsion and fall was taken as the latency period. Guinea pigs with a latency period exceeding 180 seconds were not selected. […] The guinea pigs were administered by oral gavage at a dose of 2 mL/kg·bw. Sixty minutes after the administration, the guinea pigs were placed in bell jars, and histamine hydrochloride solution was sprayed under the same conditions as in the previous selection. The latency period for the onset of asthma was recorded. […] The results were processed statistically.

Data set [4] in a line: Accelerated stability test. Type of data set: physicochemical. Particulars: 40°C ± 2°C, relative humidity 75% ± 5%; for remaining at 730 h / remaining at 1460 h / remaining at 2190 h / remaining at 4380 h: storage 75% relative humidity, read-out: Content.
The nature of data set [5]: Solubility of the compounds in water, methanol and isopropanol. The class given is physicochemical. Particulars: solvent water.
Method: The solubility in water, methanol, and isopropanol of the compounds of the present disclosure and the comparative compounds were measured separately.

As to `O=C1Cc2ccccc2C(=C2CCN(CCOCOP(=O)(O)O)CC2)c2ccsc21` [Compound III-6], the “Smooth muscle tone After administration” value in data set [1] (n = 8) is 1.14 ± 0.30 g; in the data set with histamine, 1.22 ± 0.23 g. In addition, the “Smooth muscle tone Before administration” value in data set [1] (baseline, n = 8) is 1.71 ± 0.24 g; in the data set on histamine (baseline before histamine) it was 1.78 ± 0.20 g. The Antispasmodic percentage is on record as 33.33±19.04% in data set [1] and 64.43±17.18% in data set [2]. In the data set on histamine (after 0.05 mL histamine, before compound), the “Smooth muscle tone After addition of histamine” value was determined as 3.43 ± 0.92 g. This compound also returned a Post-administration latency period in data set [3] of 370.03 ± 52.11 s. The same compound had a Pre-administration latency period in data set [3] (baseline before administration, histamine hydrochloride 0.8 mg/mL sprayed 40 seconds) of 98.68 ± 49.22 s.
`O=C1Cc2ccccc2C(=C2CCN(COP(=O)(O)O)CC2)c2ccsc21` [Compound IV-1]: in data set [1] (n = 8), the “Smooth muscle tone After administration” value is 1.14 ± 0.31 g. This compound displayed an Antispasmodic percentage in data set [1] (5 min) of 33.72±18.32%. Besides, the Antispasmodic percentage in data set [2] worked out at 66.28±18.26%. Moreover, the “Smooth muscle tone After administration” value in the data set on histamine is 1.18 ± 0.24 g. Further, the Post-administration latency period in data set [3] turned out to be 368.83 ± 49.03 s. In data set [4] (Month 0), the Content worked out at 99.7%, the Description entry is “White powder” and the Related substances was determined as 0.03%. In data set [4] (Month 1), the Description result is given as “White powder”, the Related substances came to 0.05% and the remaining at 730 h was determined as 99.7%. In data set [4] (Month 2), the Description entry is reported as “White powder”, the Related substances is reported as 0.09% and the remaining at 1460 h came to 99.6%. Further, in data set [4] (Month 3), the Description entry is “White powder”, the Related substances is recorded as 0.12% and the remaining at 2190 h amounted to 99.6%. In data set [4] (Month 6), the Description result is “White powder”, the Related substances is given as 0.24% and the remaining at 4380 h was 99.4%.
`O=C1Cc2ccccc2C(=C2CCN(CCOP(=O)(O)O)CC2)c2ccsc21` [Compound IV-2]: in data set [1] (n = 8), the “Smooth muscle tone After administration” value is 1.19 ± 0.31 g. Further, the Antispasmodic percentage in data set [1] is 30.40±18.50%. In data set [2], this compound displayed an Antispasmodic percentage of 66.95±17.07%. For the same compound, in the data set on histamine, the “Smooth muscle tone After administration” value was 1.14 ± 0.23 g. In data set [3], this compound returned a Post-administration latency period of 380.27 ± 50.25 s. In addition, in data set [4] (Month 0), the Content is recorded as 99.7%, the Description result is reported as “White powder” and the Related substances is given as 0.03%. Besides, in data set [4] (Month 1), the Description result is on record as “White powder”, the Related substances stood at 0.04% and the remaining at 730 h stood at 99.7%. Further, in data set [4] (Month 2), the Description result is “White powder”, the Related substances stood at 0.04% and the remaining at 1460 h amounted to 99.7%. Further, in data set [4] (Month 3), the Description result is “White powder”, the Related substances was 0.06% and the remaining at 2190 h was 99.6%. In data set [4] (Month 6), the Description entry is recorded as “White powder”, the Related substances was 0.09% and the remaining at 4380 h turned out to be 99.6%.
For `O=C1Cc2ccccc2C(=C2CCN(CCCCOP(=O)(O)O)CC2)c2ccsc21` [Compound IV-4], the “Smooth muscle tone After administration” value in data set [1] (n = 8) turned out to be 1.18 ± 0.26 g. In addition, in data set [1] (5 min), the Antispasmodic percentage worked out at 30.59±19.00%. Moreover, the Antispasmodic percentage in data set [2] is on record as 65.40±19.07%. Further, the “Smooth muscle tone After administration” value in the data set on histamine was 1.19 ± 0.21 g. Further, in data set [3], the Post-administration latency period was found to be 376.89 ± 51.43 s. Moreover, in data set [4] (Month 0), the Content turned out to be 99.7%, the Description entry is “White powder” and the Related substances was found to be 0.03%. In data set [4] (Month 1), the Description result is “White powder”, the Related substances came out at 0.05% and the remaining at 730 h came to 99.7%. Further, in data set [4] (Month 2), the Description result is “White powder”, the Related substances is recorded as 0.09% and the remaining at 1460 h came out at 99.6%. For the same compound, in data set [4] (Month 3), the Description entry is “White powder”, the Related substances turned out to be 0.12% and the remaining at 2190 h is 99.6%. In data set [4] (Month 6), the Description result is listed as “White powder”, the Related substances worked out at 0.25% and the remaining at 4380 h was 99.4%.
`O=C1Cc2ccccc2C(=C2CCN(CCCCCOP(=O)(O)O)CC2)c2ccsc21` [Compound IV-5]: the “Smooth muscle tone After administration” value amounted to 1.14 ± 0.30 g in data set [1] (n = 8) and 1.20 ± 0.22 g with histamine. Moreover, the Antispasmodic percentage in data set [1] (5 min) was determined as 33.72±19.05%; in data set [2] it was 65.61±19.34%. The Post-administration latency period in data set [3] was determined as 377.11 ± 50.43 s.
`O=C1Cc2ccccc2C(=C2CCN(CCOCOP(=O)(O)O)CC2)c2ccsc21` [Compound IV-6]: the “Smooth muscle tone After administration” value worked out at 1.17 ± 0.28 g in data set [1] (n = 8) and 1.15 ± 0.20 g in the data set with histamine. The Antispasmodic percentage in data set [1] (5 min) is listed as 31.17±19.54%; in data set [2] it was 66.56±19.45%. In data set [3], the Post-administration latency period turned out to be 370.56 ± 50.81 s. Further, in data set [4] (Month 0), the Content was determined as 99.7%. In addition, the Description result in data set [4] (Month 0), in data set [4] (Month 1), in data set [4] (Month 2), in data set [4] (Month 3) and in data set [4] (Month 6) was “White powder” each time. Moreover, the Related substances is 0.03% in data set [4] (Month 0); 0.05% in data set [4] (Month 1); 0.09% in data set [4] (Month 2); 0.12% in data set [4] (Month 3); 0.25% in data set [4] (Month 6). For the same compound, the remaining at 730 h in data set [4] (Month 1) came out at 99.7%. For the same compound, the remaining at 1460 h in data set [4] (Month 2) was found to be 99.6%. In data set [4] (Month 3), the remaining at 2190 h stood at 99.6%. In addition, the remaining at 4380 h in data set [4] (Month 6) was determined as 99.4%.
In the case of `O=C1Cc2ccccc2C(=C2CCN(CCCOCOP(=O)(O)O)CC2)c2ccsc21` [Compound IV-7], the results for the “Smooth muscle tone After administration” value (in data set [1] (n = 8); with histamine) were 1.15 ± 0.25 g and 1.17 ± 0.22 g, respectively. Also, the values for the Antispasmodic percentage in data set [1] (5 min) and in data set [2] were 33.52±19.74% and 65.99±19.08%, respectively. Also, the Post-administration latency period in data set [3] was 373.33 ± 52.76 s.
On to `O=C1Cc2ccccc2C(=C2CCN(CCCCOCOP(=O)(O)O)CC2)c2ccsc21` [Compound IV-8], for which the “Smooth muscle tone After administration” value in data set [1] (n = 8) is listed as 1.14 ± 0.31 g. In addition, the Antispasmodic percentage in data set [1] (5 min) turned out to be 32.94±19.45%. Moreover, the Antispasmodic percentage in data set [2] is 65.01±18.56%. Moreover, the “Smooth muscle tone After administration” value in the data set with histamine was found to be 1.20 ± 0.25 g. The compound also returned a Post-administration latency period in data set [3] of 370.23 ± 50.29 s. In addition, in data set [4] (Month 0), the Content was 99.7%, the Description entry is “White powder” and the Related substances is listed as 0.03%. In addition, in data set [4] (Month 1), the Description result is listed as “White powder”, the Related substances was 0.04% and the remaining at 730 h was determined as 99.7%. In addition, in data set [4] (Month 2), the Description entry was “White powder”, the Related substances is given as 0.05% and the remaining at 1460 h was 99.7%. Further, in data set [4] (Month 3), the Description entry is given as “White powder”, the Related substances was found to be 0.06% and the remaining at 2190 h is 99.6%. Besides, in data set [4] (Month 6), the Description entry was “White powder”, the Related substances was 0.09% and the remaining at 4380 h came out at 99.6%.
As for `O=C1Cc2ccccc2C(=C2CCN(CCCCCOCOP(=O)(O)O)CC2)c2ccsc21` [Compound IV-9], the entries for the “Smooth muscle tone After administration” value (in data set [1] (n = 8); in the data set on histamine) were 1.16 ± 0.28 g and 1.15 ± 0.26 g, respectively. The Antispasmodic percentage in data set [1] (5 min) is reported as 32.95±19.04%; in data set [2], 66.57±18.66%. In data set [3], the Post-administration latency period was 369.11 ± 49.40 s.
For `CN1CCC(=C2c3ccccc3CC(=O)c3sccc32)CC1` [Ketotifen], in data set [5], the “Solubility in Water” value is listed as “Practically insoluble”.
